In general, IC50 refers to the point on the concentration scale where inhibition reaches its midpoint.

Active and inactive are the calls of the source. How the calls were made is not given here.

Consider 93 molecules from PubChem BioAssay AID1159560 (GlaxoSmithKline (GSK), 2015).

The subject of the assay is Leishmania donovani growth inhibition. Kind of assay: antileishmanial activity against L. donovani parasites (AID 1159560).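 Further: parasites exposed to compound for 72 h before the viability read.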
With `N#Cc1cccc(Nc2nccc(N3CCC(NS(=O)(=O)c4cccc(C#N)c4)CC3)n2)c1`, the IC50 was 0.63 µM.
Regarding `Cc1cc(C)c(C#N)c(SCC(=O)c2ccc3c(c2)OCO3)n1`, the IC50 is > 50 µM (inactive).
With `Cc1ccc(NC(=O)c2ccnc(N3CCCC3)c2)cc1-c1cc(C(N)=O)ccc1C`, the IC50 was 25 µM.
As to `O=C(NCc1ccncc1)c1ccccc1N1CCCN(C(=O)Cc2ccc(F)c(F)c2)CC1`, the IC50 was 2.5 µM.
The result for `N#Cc1cc([N+](=O)[O-])ccc1NC1CCCCCC1` reads > 50 µM (inactive); that for `Cc1ccc(Nc2nc(C3CCCN3Cc3ccn[nH]3)cs2)nc1` (stereo not drawn), 13 µM; that for `N#Cc1cc(N2CCCC2=O)ccc1Sc1ccccc1CO`, > 50 µM (inactive).
The result for `CCc1cccc(-n2nc(OCC(=O)NC3CCCC3)c3cccnc32)c1` reads 2.5 µM.
For `Cc1ccc(C)c(-n2nnnc2Sc2nc([N+](=O)[O-])nn2C)c1`, the IC50 was > 50 µM (inactive).
The result for `O=C(CC1(O)C(=O)N(Cc2ccccc2)c2ccc(Br)cc21)c1cccnc1` (stereo not drawn) reads > 50 µM (inactive); that for `CC(Cn1ccnc1)NC(=O)C=Cc1ccc(Cl)cc1` (stereo not drawn), > 50 µM (inactive).
With `CC(C)Nc1nccc(-c2c(-c3ccc(F)cc3)ncn2C2CCOCC2)n1`, the IC50 is 25 µM.
The result for `Oc1c(-c2n[nH]c(Cc3ccc(Cl)cc3)n2)ncc2cccnc12` reads 0.25 µM; that for `O=S(=O)(c1ccccc1C(F)(F)F)N1CCN(Cc2ccc(-n3ccnc3)cc2)CC1`, 6.3 µM; that for `Cc1nn(-c2nc(N)nc(-c3ccccn3)n2)c(N)c1-c1ccccc1`, 5 µM.
The result for `O=C(Nc1nc2ccccc2[nH]1)c1ccc2nc[nH]c2c1` reads 2.5 µM; that for `CC(c1cc(Cl)cc(Cl)c1)N(C)c1ncc2c(N)nc(N)nc2n1` (stereo not drawn), 0.79 µM.
In the case of `O=C(Nc1nccs1)c1ccccc1Cn1cc([N+](=O)[O-])cn1`, the IC50 is > 50 µM (inactive).
The result for `Cc1cc(C)cc(NS(=O)(=O)c2cc(-c3cc(C)[nH]n3)ccc2C)c1` reads 2.5 µM; that for `Cc1ccc(NC(=O)C(C)n2nc([N+](=O)[O-])c(Br)c2C)cc1Cl` (stereo not drawn), > 50 µM (inactive); that for `CC(C)(C)c1csc(NC(=O)c2ccc([N+](=O)[O-])s2)n1`, 1.6 µM.
The result for `COc1cc(NC(=O)Nc2cccc(CNC(=O)OC3CCCCC3)c2)ccc1-c1cnco1` reads > 50 µM (inactive).
The result for `CCC(c1ccc(F)cc1)n1cncc1-c1cnn(C)c1` (stereo not drawn) reads > 50 µM (inactive); that for `CCc1c(C)nc(-n2nc(C)cc2NC(=O)COc2ccccc2F)[nH]c1=O`, 0.13 µM.
Consider `CC(=O)Nc1ccc(CN2CCC(N3CC(c4ccccc4)(c4ccccc4)OCC3=O)CC2)cc1`, for which the IC50 was 0.5 µM.
The result for `Cc1cc(C)n(-c2nc(NC(C)(C)C)nc(N3CCOCC3)n2)n1` reads 6.3 µM.
With `CCN(C)Cc1ccc(N2CCC(NS(=O)(=O)c3ccc4c(c3)CCO4)CC2)nc1`, the IC50 was > 50 µM (inactive).
The result for `CC(C)(C)c1cc(NC2CC2)nc(-c2ccccn2)n1` reads 1.6 µM; that for `CCC(=O)Nc1ccc(-c2nc3ccc(Cl)cc3[nH]2)cc1`, > 50 µM (inactive).
The result for `O=C(Cc1ccccc1)Nc1ccccc1C(=O)Nc1nccs1` reads > 50 µM (inactive); that for `CC(C(=O)Nc1ccc(Br)cc1)N1CCN(c2ccc([N+](=O)[O-])cc2)CC1` (stereo not drawn), > 50 µM (inactive); that for `CCCCn1nnnc1CSc1nc(C)cc(C)c1C#N`, 1.3 µM.
The result for `CN(Cc1cccnc1)Cc1ccc(N2CCN(C(=O)C3(c4ccc(Cl)cc4)CC3)CC2)nc1` reads 32 µM; that for `CCC(CC)C(=O)Nc1cccc(C(=O)Nc2nnc(C3CCCCC3)s2)c1`, > 50 µM (inactive).
As for `O=C(NCCCn1cnc2ccccc21)c1ccc(NC(=O)c2ccco2)cc1`, the half-maximal inhibitory concentration (IC50) is 1.3 µM.
Consider `Cn1nc([N+](=O)[O-])nc1Oc1ccc(C(=O)c2ccccc2)cc1`, for which the IC50 is > 50 µM (inactive).
Turning to `O=C(Nc1n[nH]c(-c2ccccn2)n1)C1CC1c1ccccc1` (stereo not drawn), the half-maximal inhibitory concentration (IC50) was 13 µM.
The result for `CC1CN(S(=O)(=O)c2ccc(NC(=O)c3cc(C4CC4)nc4c3cnn4C(C)C)cc2)CC(C)O1` (stereo not drawn) reads 20 µM; that for `CC(CNS(=O)(=O)c1ccc(OC(F)F)cc1)c1ccc(NC(=O)c2ccncc2)cc1` (stereo not drawn), > 50 µM (inactive).
The result for `CNS(=O)(=O)c1ccccc1Nc1nc(Nc2cc(C)nn2C)ncc1Cl` reads 0.25 µM; that for `CS(=O)(=O)c1ccccc1C(=O)N(Cc1ccccc1)c1ccccc1`, 16 µM.
Turning to `Cc1cc2ncn(-c3ccc([N+](=O)[O-])cc3C#N)c2cc1C`, the IC50 is > 50 µM (inactive).
Turning to `CCN(CC)S(=O)(=O)c1ccc(OC)c(NC(=O)c2ccc([N+](=O)[O-])s2)c1`, the IC50 is > 50 µM (inactive).
On to `Cc1nc(C(=O)Nc2ccc3c(c2)OCO3)nn1-c1ccc(F)cc1`, for which the IC50 is 2 µM.
For `O=C(CSc1ccc(-c2ccccn2)nn1)Nc1ccc(Cl)cc1`, the IC50 was > 50 µM (inactive).
In the case of `Cn1nc(C(=O)N2CCc3ccccc32)c2c1CCS(=O)(=O)C2`, the half-inhibitory concentration (IC50) was 4 µM.
In the case of `Nc1nc(-c2ccccc2)cc(-c2nc3ncccc3[nH]2)n1`, the IC50 is 4 µM.
The result for `O=C(Cn1cnc([N+](=O)[O-])n1)Nc1ccc(Cl)cc1C(=O)c1ccccc1` reads > 50 µM (inactive).
The result for `CCCN1CCN(Cc2ccc(S(=O)(=O)Nc3cccc(C)c3)cc2)CC1` reads 25 µM; that for `CC(C)(C)C(=O)NCCc1csc(-c2ccc(F)cc2)n1`, > 50 µM (inactive).
The result for `CC(C)CC(=O)NC(c1cccs1)c1ccc2cccnc2c1O` (stereo not drawn) reads 6.3 µM; that for `Cc1nn(C)c(Cl)c1CN(Cc1cccnc1)Cc1ccsc1`, 2 µM.
For `Cc1cn[nH]c1C1CCCN(Cc2nc3ccccc3n2C)C1` (stereo not drawn), the IC50 is 16 µM.
The result for `CC(C)(C)C(=O)Nc1cc(C2CC2)nn1-c1nc2c(c(=O)[nH]1)CCCC2` reads 0.079 µM.
The result for `CCC(=O)Nc1ccccc1C(=O)Nc1ccccn1` reads > 50 µM (inactive); that for `Cc1cc(C)nc(N2CCC(N(Cc3cccnc3)C(=O)c3cccc(C#N)c3)CC2)n1`, 5 µM; that for `O=C(Nc1ccc(C(F)(F)F)cc1)Nc1cccc([N+](=O)[O-])c1`, 7.9 µM.
The result for `O=C(NCCc1ccccc1Cl)c1cccn1-c1cccnc1` reads 6.3 µM; that for `CS(=O)(=O)c1ccc(Nc2nccc(Nc3n[nH]c4ccc(F)cc34)n2)c(F)c1`, 13 µM; that for `Cc1cccc(N2CCCN(Cc3c[nH]c4ccccc34)CC2)n1`, > 50 µM (inactive).
Consider `CCOc1ccc(CN(C)Cc2nc(N)nc(Nc3ccc(C)cc3)n2)cc1`, for which the IC50 is 32 µM.
The result for `CN(C)c1ccc(N)cc1CN(CC1CCCO1)S(C)(=O)=O` (stereo not drawn) reads 4 µM; that for `Cc1ccc(S(=O)(=O)Cn2nnnc2C(c2cccnc2)N2CCN(c3ccccc3)CC2)cc1` (stereo not drawn), 1 µM; that for `O=C(N[C@H](CO)c1ccccc1)c1ccc(-c2c[nH]c3nccc(C(F)(F)F)c23)s1`, 32 µM.
The result for `COc1cnc2ccc(=O)n(CCN3CCC(NC/C=C/c4cc(F)ccc4F)CC3)c2c1` reads 5 µM.
`O=C(c1cccc(Cl)c1Cl)N1CCn2c1nc(-c1ccncc1)cc2=O`: the 50% inhibitory concentration (IC50) was 50 µM.
The result for `N#Cc1cc(-c2ccnc(Nc3cccc(CN4CCOCC4)c3)n2)ccc1NCCN` reads 4 µM.
In the case of `COc1ccccc1-c1c(C)[nH]c2nc(N)nc(C)c12`, the IC50 was 13 µM.
Consider `O=C(CN1CCC2(O)CCCCC2C1c1ccc2c(c1)OCO2)Nc1ccc(Cl)cc1Cl` (stereo not drawn), for which the IC50 is 5 µM.
On to `CCNc1cc(-c2ccccn2)nc(Nc2ccc(OC)cc2)n1`, for which the IC50 is 1.6 µM.
The result for `Cc1[nH]nc(C(F)(F)F)c1NC(=O)CCn1cc(Cl)c([N+](=O)[O-])n1` reads > 50 µM (inactive); that for `Cc1nc(N2CC(C)OC(C)C2)sc1C(=O)Nc1ccc2c(c1)OCO2` (stereo not drawn), 6.3 µM; that for `CN(Cc1nc2ccccc2s1)C(=O)C=Cc1cc2ccccc2o1`, 50 µM.
The result for `CC(C)n1c(-c2nonc2N)nc2cccc(OCCN3CCCC3)c21` reads > 50 µM (inactive); that for `Cc1ccc(-c2csc(NC(=O)C=Cc3ccc(S(=O)(=O)N4CCOCC4)cc3)n2)o1`, 6.3 µM.
The result for `CCn1c(-c2nonc2N)nc2c([C@@H](C)O)ncc(O[C@H](CN)c3ccccc3)c21` reads 20 µM.
As for `O=C(CCCNC(=O)c1ccc(Cl)cc1)Nc1nc(-c2ccccn2)cs1`, the IC50 was > 50 µM (inactive).
The result for `O=C(c1cccc(Nc2ncc(-c3ccc4c(c3)OCO4)cn2)c1)N1CCSC1` reads 1.3 µM.
The result for `CNc1cncc(C2CCCN2C(=O)Cc2ccc3ccccc3c2)n1` (stereo not drawn) reads > 50 µM (inactive).
Turning to `O=C(Nc1ccc(S(=O)(=O)N2CCCC2)cc1)c1ccc([N+](=O)[O-])s1`, the half-maximal inhibitory concentration (IC50) is 7.9 µM.
The result for `CCCC(=O)N(Cc1ccccn1)c1nc2ccccc2s1` reads 7.9 µM; that for `C[C@@H](Oc1cc(-n2cnc3ccc(CC(O)CO)cc32)sc1C(N)=O)c1ccccc1Cl` (stereo partly drawn), 25 µM.
As for `CS(=O)(=O)c1ccc(Nc2nccc(-c3cnn4ncccc34)n2)cc1`, the 50% inhibitory concentration (IC50) was 0.79 µM.
The result for `Cc1[nH]nc2c1C(c1ccc(OCc3ccccc3F)cc1)SCC(=O)N2` (stereo not drawn) reads 40 µM; that for `CS(=O)(=O)NC1CCC(Oc2cc3cnccc3cc2-c2ccsc2)CC1` (stereo not drawn), 32 µM; that for `O=C(O)[C@H]1C[C@@H]1c1ccc(-c2ccc(CN(CCc3ccccn3)C(=O)C3CCC3)cc2)cc1`, 25 µM.
The result for `c1ccc2sc(Nc3nc4ncccc4[nH]3)nc2c1` reads 1.6 µM.
The result for `O=c1cc(NCCCNC2CCOc3c(I)cc(Cl)cc32)[nH]c2ccccc12` (stereo not drawn) reads 32 µM.
In the case of `CC(C)C[C@H](NC(=O)c1ccc(-c2ccccc2)o1)C(=O)NC1(C#N)CC1`, the IC50 was > 50 µM (inactive).
For the molecule `Cc1ccc2nc(N(Cc3cccnc3)C(=O)CCc3ccccc3)sc2c1`, the half-inhibitory concentration (IC50) was 25 µM.
The result for `NC(=O)c1ccsc1NC(=O)c1ccc([N+](=O)[O-])s1` reads 0.32 µM.
Turning to `CC(C)Oc1cccc(N2CCC(C(=O)N3CCCN(C(C)C)CC3)CC2)c1`, the IC50 is > 50 µM (inactive).
The result for `Cc1ccc(NC(C)C(=O)Nc2ccc(C#N)cc2)cc1S(=O)(=O)N1CCCCC1` (stereo not drawn) reads 0.79 µM.
